{
  "source": "patent US5028726A",
  "about": "“Platinum amine sulfoxide complexes” (The University of Vermont and State Agricultural College, priority 1990, dated 1991)",
  "key": {"B16 melanoma": {"tested_on": "B16 melanoma", "test": "In vivo efficacy, B16 melanoma, compared to cisplatin", "parameters": "species or system mice", "conditions": "tumor s.c., drug i.p."}, "[1]": {"conditions": "clinical, compared with parent complex cisplatin; cited from earlier work"}, "L1210 leukemia": {"tested_on": "L1210 leukemia", "test": "In vivo efficacy, L1210 leukemia in mice", "parameters": "species or system murine (male BDR mice)", "conditions": "days 1, 5 and 9", "experimental": "(§1) Male BDR mice weighing 18-20 gm were purchased from the National Cancer Institute and housed in an environment having controlled humidity, temperature and photoperiods. The animals had food and water available ad libitum and wood chip bedding was changed daily. The L1210/0 and P388 murine leukemias were maintained as ascites tumors by weekly intraperitoneal (i.p.) inoculations of 10^6 cells For testing purposes, 10^6 tumor cells were inoculated i.p. (day 0) and mice were administered test compound i.p. on days 1, 5 and 9. Animals were observed daily for signs of toxicity and deaths and the day of death recorded for each animal that died during the 60 day observation period. The efficacy of each dose of compound tested was evaluated by calculating the percent increased life span determined by dividing the mean survival time of treated mice (using the day of death of only those animals that dies during the 60 day period) by the mean survival time of non-treated tumor bearing control animals (% T/C). […] An additional index of antitumor activity is the number of long term survivors defined as treated animals alive at the end of the study. The complexes tested and the results observed are summarized in Table 3 (L1210 leukemia) and in Table 4 (P338 leukemia). The data in Table 5 compares to the in vivo activity of [PtCl(n-Bu2 SO)](damch)NO3 with that of cisplatin."}, "[2]": {"tested_on": "L1210/0 murine leukemia cells", "test": "In vitro cytotoxicity, DDP-sensitive L1210/0 cells", "assay_type": "cell-based", "conditions": "L1210/0, DDP-sensitive; 72 hours; read-out: In Vitro Activity in L1210 Leukemia, L1210/O (ID50)", "experimental": "(§2) L1210 murine leukemia cells sensitive to the cytotoxicity of DDP (L1210/0) were cultured as a suspension in McCoy's 5A medium supplemented with 5% donor horse serum and glutamine. L1210 cells, 40-60 fold resistant to DDP (L1210/DDP) or 30-fold resistant to [Pt(R,R-dach)SO4 ] (L1210/dach), were cultured in McCoy's 5A medium supplemented with 10% fetal bovine serum and glutamine. Both cell lines were grown in a humidified atmosphere to 5% CO2 : 95% air at 37° C. For testing purposes, cells were diluted to 5×10^4 cells/ml and 1 ml of cell suspension aliquoted to disposable tissue culture tubes. Test compound was then added to the appropriate tubes (40 μl/tube) to attain final concentrations of 0.01, 0.1, 1.0 and 10 μg/ml. After 72 hours, the cell concentrations of all tubes were determined using a Coulter counter. The percent growth inhibition for each drug concentration was then calculated and the ID 50 (concentration of drug required to inhibit cell growth by 50%) was derived. The resistance factor for each compound was obtained by dividing the ID50 (L1210/DDP) by the ID50 (L1210/0).\n(§3) In Vitro Activity (μM) of [PtCl(R2 SO)(damch)]NO3 in L1210"}, "L1210/DDP cells": {"tested_on": "L1210/DDP cells", "test": "In vitro cytotoxicity, DDP-resistant L1210/DDP cells", "assay_type": "cell-based, murine", "conditions": "for Resistance Factor (R), L1210/DDP: ID50 (L1210/DDP) divided by ID50 (L1210/0), 4320 min; for IC50: L1210/DDP, 40-60 fold resistant to DDP, 72 hours, read-out: In Vitro Activity in L1210 Leukemia, L1210/DDP (ID50)", "experimental": "as §2, §3\n(§4) ^a R = Resistance Factor which is defined as ID50 (Sensitive or […]"}, "P388 leukemia": {"tested_on": "P388 leukemia", "test": "In vivo efficacy, P388 leukemia in mice", "parameters": "species or system murine (male BDR mice)", "conditions": "days 1, 5 and 9", "experimental": "as §1"}, "L1210/dach cells": {"tested_on": "L1210/dach cells", "test": "In vitro cytotoxicity, [Pt(R,R-dach)SO4]-resistant L1210/dach cells", "assay_type": "cell-based, murine", "experimental": "as §2, §3, §4"}, "[3]": {"conditions": "dose 3 × 12.5, complex in saline"}},
  "data": [
    {"molecule": "N.N.[Cl][Pt][Cl]", "note": "[Cisplatin, cis-[PtCl2 (NH3)2], reference compound]", "values": [
      {"measurement": "% T/C, B16 melanoma", "setting": "B16 melanoma; dose 3 × 5", "result": 170, "unit": "%"}
    ]},
    {"molecule": "N.N.O=C([O-])C1(C(=O)[O-])CCC1.[Pt+2]", "note": "[carboplatin, [Pt(NH3)2 (CBDCA)]]", "values": [
      {"measurement": "nephrotoxicity", "setting": "[1]", "result": "reduction in the severe nephrotoxicity of the parent complex"}
    ]},
    {"molecule": "[PtCl(R2 SO)(damch)]NO3, R = Me [reference compound]", "values": [
      {"measurement": "% T/C, L1210 leukemia", "setting": "L1210 leukemia; 3 × 100 mg/kg i.p.", "result": 152, "unit": "%"},
      {"measurement": "IC50", "setting": "[2]", "result": 1090, "unit": "nM"},
      {"measurement": "Resistance Factor (R), L1210/DDP", "setting": "L1210/DDP cells", "result": 3.58},
      {"measurement": "IC50", "setting": "L1210/DDP cells", "result": 3900, "unit": "nM"}
    ]},
    {"molecule": "[PtCl(R2 SO)(damch)]NO3, R = n-Pr", "values": [
      {"measurement": "% T/C, L1210 leukemia", "setting": "L1210 leukemia; 3 × 12.5 mg/kg i.p.", "result": 162, "unit": "%"},
      {"measurement": "% T/C, L1210 leukemia", "setting": "L1210 leukemia; 3 × 25 mg/kg i.p.", "result": 185, "unit": "%"},
      {"measurement": "IC50", "setting": "[2]", "result": 620, "unit": "nM"},
      {"measurement": "Resistance Factor (R), L1210/DDP", "setting": "L1210/DDP cells", "result": 4.70},
      {"measurement": "IC50", "setting": "L1210/DDP cells", "result": 2920, "unit": "nM"}
    ]},
    {"molecule": "[PtCl(damch)(n-Bu2 SO)]^+ NO3 ^-", "values": [
      {"measurement": "% T/C, L1210 leukemia", "setting": "L1210 leukemia; 3 × 25 mg/kg (D5W) i.p.", "result": 260, "unit": "%"},
      {"measurement": "IC50", "setting": "[2]", "result": 390, "unit": "nM"},
      {"measurement": "Resistance Factor (R), L1210/DDP", "setting": "L1210/DDP cells", "result": 6.05},
      {"measurement": "IC50", "setting": "L1210/DDP cells", "result": 2360, "unit": "nM"},
      {"measurement": "% T/C, B16 melanoma", "setting": "B16 melanoma; dose 3 × 6.25, complex in saline", "result": 154, "unit": "%"},
      {"measurement": "% T/C, B16 melanoma", "setting": "B16 melanoma; [3]", "result": 136, "unit": "%"},
      {"measurement": "figure in parentheses after % T/C (presumably long term survivors), B16 melanoma", "setting": "B16 melanoma; [3]", "result": "1/6"},
      {"measurement": "% T/C, B16 melanoma", "setting": "B16 melanoma; dose 3 × 25, complex in saline", "result": 188, "unit": "%"},
      {"measurement": "% T/C, P388 leukemia", "setting": "P388 leukemia; dose 3 × 6.25, i.p.", "result": 167, "unit": "%"},
      {"measurement": "% T/C, P388 leukemia", "setting": "P388 leukemia; dose 3 × 12.5, i.p.", "result": 146, "unit": "%"},
      {"measurement": "% T/C, P388 leukemia", "setting": "P388 leukemia; dose 3 × 25 (D5W), i.p.", "result": 195, "unit": "%"},
      {"measurement": "% T/C, P388 leukemia", "setting": "P388 leukemia; dose 3 × 25, i.p.", "result": 189, "unit": "%"},
      {"measurement": "IC50", "setting": "L1210/dach cells; L1210/dach, 30-fold resistant to [Pt(R,R-dach)SO4], 72 hours, read-out: In Vitro Activity in L1210 Leukemia, L1210/dach (ID50)", "result": 5360, "unit": "nM"},
      {"measurement": "Resistance Factor (R), L1210/dach", "setting": "L1210/dach cells; resistance factor for L1210/dach versus L1210/0, 4320 min", "result": 41.23}
    ]}
  ]
}
